Measurements as given in patent publication US20240166693A1, “METHODS AND COMPOUNDS FOR MODULATING MYOTONIC DYSTROPY 1” (Design Therapeutics, Inc., priority 2020, published 2024).

tested on: Myotonic Dystrophy 1 affected patient fibroblasts (Coriell GM04602; 1600 CTG repeats); test: DM1 foci reduction assay (CAG10-Cy3 FISH, average foci per nucleus); type: cell-based; settings: Homo sapiens, Fibroblast, 48 h, read-out: Foci Reduction in Fibroblast EC50, 48 h (nM)
Experimental: DM1 foci reduction assay methods: Myotonic Dystrophy 1 affected patient fibroblasts (Coriell GM04602; 1600 CTG repeats) and wild type fibroblasts (Coriell GM07492; control line) were cultured separately in Gibco DMEM (1×)+4.5 g/L D-Glucose+L-Glutamine+110 mg/L Sodium Pyruvate, supplemented with 10% FBS and 1× Pen/Strep. Cells were maintained in incubator at 37° C. and 5% CO2 with media refresh every 48-72 hours.
At 90-95% confluency, both cell lines were harvested using Trypl-E then pelleted at 500×g for 5 minutes and were resuspended in media. DM1 fibroblasts were seeded in Agilent 96 well black plates at a density of 5,000 cells/well in 200 μL media; 8 wells were reserved for control fibroblasts. Plates were returned to incubator for 24 hours at 37° C. and 5% CO2.
Compounds were diluted from 10 mM stock to 1 mM in DMSO, then diluted once more to 6 μM (2× concentration) in media. Media was removed from all plates and cells were replenished with 100 μL media. Cells were treated in 8-point dose response, 1:3 fold dilution, 3 μM top dose via addition of 100 μL of 6 μM (2× concentration) compound to the 100 μL media with cells. Plates were returned to incubator for 48-hour time-course experiment at 37° C. and 5% CO2.
Following treatment, compounds were removed, and plates were washed with PBS, then cells were fixed in 75 μL 4% PFA solution for 20 minutes at room temperature. Plates were washed twice with PBS and twice with cold 70% ethanol before permeabilization with 250 μL cold 70% ethanol for 24-72 hours at −20° C.
After permeabilization, plates were washed once with a 30% formamide and 2×SSC buffer and rehydrated in that buffer for 15 minutes at room temperature. Cells were incubated overnight at 37° C. in 75 μL of a hybridization solution containing 30% formamide, 2×SSC, 25 mg/mL dextran sulfate, 2.5 mg/mL BSA, 0.2 μg/mL Herring sperm DNA, 2 mM vanadyl-ribonucleoside complex, and 5 nM CAG10-Cy3 probe.
Plates were washed once with 30% formamide in 2×SSC buffer, then twice with the buffer for 30 minutes at 37° C., 300 RPM in an incubating plate shaker. Cells were stained with 75 μL of 2.5 μg/mL DAPI in PBS for 5 minutes at room temperature. Plates were then washed twice with PBS and stored in 250 μL PBS. Plates were sealed with adhesive foil and wiped down with 70% ethanol.
Cells were imaged on a Cytation5 with a 20× objective sampling from 4 areas of each well. Nuclei were captured under DAPI channel and foci under RFP channel. Plates were analyzed on an average foci per nucleus per well basis.

Question: For `CCN(CC)CCCC[C@H](NC(=O)[C@H](CC(C)C)NC(=O)[C@H](C)NC(=O)[C@H](Cc1ccccc1)NC(=O)c1ccccc1C)C(=O)N[C@@H](CO)C(=O)NCCOCCOCCOCCOCCOCCNC(=O)CCNC(=O)c1nc(NC(=O)c2cc(NC(=O)CCNC(=O)c3nc(NC(=O)CCCNC(=O)c4cc(NC(=O)c5nc(NC(=O)CCNC(=O)c6cc(NC(=O)c7nccn7C)cn6C)cn5C)cn4C)cn3C)cn2C)cn1C` [Compound 86], which EC50 is on record?
Answer: < 100 nM

Question: For `CCN(CC)CCCC[C@H](NC(=O)[C@H](CC(C)C)NC(=O)[C@H](C)NC(=O)[C@H](Cc1ccccc1)NC(=O)c1ccccc1)C(=O)N[C@@H](CO)C(=O)NCCOCCOCCOCCOCCOCCNC(=O)CCNC(=O)c1nc(NC(=O)c2cc(NC(=O)CCNC(=O)c3nc(NC(=O)CCCNC(=O)c4cc(NC(=O)c5nc(NC(=O)CCNC(=O)c6cc(NC(=O)c7nccn7C)cn6C)cn5C)cn4C)cn3C)cn2C)cn1C` [Compound 87], which EC50 is on record?
Answer: < 100 nM

Question: With `CCN(CC)CCCC[C@H](NC(=O)[C@H](CC(C)C)NC(=O)[C@H](C)NC(=O)[C@H](Cc1ccccc1)NC(=O)c1ccccc1C)C(=O)N[C@@H](CO)C(=O)NCCOCCOCCOCCOCCOCCNC(=O)c1cc(NC(=O)c2cc(NC(=O)c3nc(NC(=O)c4cc(NC(=O)[C@@H](N)CCNC(=O)c5nc(NC(=O)CCNC(=O)c6cc(NC(=O)c7nccn7C)cn6C)cn5C)cn4C)cn3C)cn2C)cn1C` [Compound 89] as the compound, how does the EC50 read?
Answer: > 500 nM

Question: For `CCN(CC)CCCC[C@H](NC(=O)[C@H](CC(C)C)NC(=O)[C@H](C)NC(=O)[C@H](Cc1ccccc1)NC(=O)c1ccccc1)C(=O)N[C@@H](CO)C(=O)NCCOCCOCCOCCOCCOCCNC(=O)c1cc(NC(=O)c2cc(NC(=O)c3nc(NC(=O)c4cc(NC(=O)[C@@H](N)CCNC(=O)c5nc(NC(=O)CCNC(=O)c6cc(NC(=O)c7nccn7C)cn6C)cn5C)cn4C)cn3C)cn2C)cn1C` [Compound 90], which EC50 is on record?
Answer: > 500 nM

Question: `CCN(CC)CCCC[C@H](NC(=O)[C@H](CC(C)C)NC(=O)[C@H](C)NC(=O)[C@H](Cc1ccccc1)NC(=O)c1ccc(C(C)(C)C)cc1)C(=O)N[C@@H](CO)C(=O)Nc1ccc(C#CC#CCNC(=O)CCNC(=O)c2nc(NC(=O)c3cc(NC(=O)CCNC(=O)c4nc(NC(=O)CCCNC(=O)c5cc(NC(=O)c6nc(NC(=O)CCNC(=O)c7cc(NC(=O)c8nccn8C)cn7C)cn6C)cn5C)cn4C)cn3C)cn2C)cc1` [Compound 96] was tested. Which EC50 did it give?
Answer: < 100 nM

Question: How did the EC50 turn out when `CCN(CC)CCCC[C@H](NC(=O)[C@H](CC(C)C)NC(=O)[C@H](C)NC(=O)[C@H](Cc1ccccc1)NC(=O)c1ccc(C(C)(C)C)cc1)C(=O)N[C@@H](CO)C(=O)NCCOCCNCC#CC#Cc1ccc(NC(=O)CCNC(=O)c2nc(NC(=O)c3cc(NC(=O)CCNC(=O)c4nc(NC(=O)CCCNC(=O)c5cc(NC(=O)c6nc(NC(=O)CCNC(=O)c7cc(NC(=O)c8nccn8C)cn7C)cn6C)cn5C)cn4C)cn3C)cn2C)cc1` [Compound 98] was run?
Answer: > 500 nM

Question: Which EC50 does the source give for `CCN(CC)CCCC[C@H](NC(=O)CNC(=O)CNC(=O)CNC(=O)c1ccc(C(C)(C)C)cc1)C(=O)N[C@@H](CO)C(=O)NCCOCCOCCOCCOCCOCCNC(=O)CCNC(=O)c1nc(NC(=O)c2cc(NC(=O)CCNC(=O)c3nc(NC(=O)CCCNC(=O)c4cc(NC(=O)c5nc(NC(=O)CCNC(=O)c6cc(NC(=O)c7nccn7C)cn6C)cn5C)cn4C)cn3C)cn2C)cn1C` [Compound 99] here?
Answer: < 100 nM

Question: For `CCN(CC)CCCC[C@H](NC(=O)[C@H](CC(C)C)NC(=O)[C@H](C)NC(=O)[C@H](Cc1ccccc1)NC(=O)c1ccc(C(C)(C)C)cc1)C(=O)N[C@@H](CO)C(=O)NCCOCCOCCOCCOCCOCCNC(=O)CCNC(=O)c1nc(NC(=O)c2cc(NC(=O)CCNC(=O)c3nc(NC(=O)[C@H](N)CCNC(=O)c4cc(NC(=O)c5nc(NC(=O)CCNC(=O)c6cc(NC(=O)c7nccn7C)cn6C)cn5C)cn4C)cn3C)cn2C)cn1C` [Compound 101], which EC50 is on record?
Answer: 100 to 500 nM

Question: Which EC50 does the source give for `CCN(CC)CCCC[C@H](NC(=O)[C@H](CC(C)C)NC(=O)[C@H](C)NC(=O)[C@H](Cc1ccccc1)NC(=O)c1ccc(C(C)(C)C)cc1)C(=O)N[C@@H](CO)C(=O)NCCOCCOCCOCCOCCOCCNC(=O)CCNC(=O)c1nc(NC(=O)c2cc(NC(=O)CCNC(=O)c3nc(NC(=O)[C@@H](CCNC(=O)c4cc(NC(=O)c5nc(NC(=O)CCNC(=O)c6cc(NC(=O)c7nccn7C)cn6C)cn5C)cn4C)NC(C)=O)cn3C)cn2C)cn1C` [Compound 102] here?
Answer: 100 to 500 nM

Question: `CCN(CC)CCCC[C@H](NC(=O)[C@H](CC(C)C)NC(=O)[C@H](C)NC(=O)[C@H](Cc1ccccc1)NC(=O)c1ccc(C(C)(C)C)cc1)C(=O)N[C@@H](CO)C(=O)NCCOCCOCCOCCOCCOCCNC(=O)c1nc(NC(=O)c2cc(NC(=O)CCNC(=O)c3nc(NC(=O)CCCNC(=O)c4nc(NC(=O)c5nc(CC(=O)CCNC(=O)c6cc(NC(=O)c7nccn7C)cn6C)cn5C)cn4C)cn3C)cn2C)cn1C` [Compound 103] was tested. Which EC50 did it give?
Answer: < 100 nM

Question: How did the EC50 turn out when `CCN(CC)CCCC[C@H](NC(=O)[C@H](CC(C)C)NC(=O)[C@H](C)NC(=O)[C@H](Cc1ccccc1)NC(=O)c1ccc(C(C)(C)C)cc1)C(=O)N[C@@H](CO)C(=O)NCCOCCOCCOCCOCCOCCNC(=O)c1nc(NC(=O)CCNC(=O)c2cc(NC(=O)c3nc(NC(=O)CCCNC(=O)c4nc(NC(=O)c5nc(CC(=O)CCNC(=O)c6cc(NC(=O)c7nccn7C)cn6C)cn5C)cn4C)cn3C)cn2C)cn1C` [Compound 104] was run?
Answer: > 500 nM

Question: For `CCN(CC)CCCC[C@H](NC(=O)[C@H](CC(C)C)NC(=O)[C@H](C)NC(=O)[C@H](Cc1ccccc1)NC(=O)c1ccc(C(C)(C)C)cc1)C(=O)N[C@@H](CO)C(=O)NCCOCCOCCOCCOCCOCCNC(=O)c1nc(NC(=O)c2cc(NC(=O)c3cc(NC(=O)c4nc(NC(=O)CCCNC(=O)c5cc(NC(=O)c6nc(NC(=O)CCNC(=O)c7cc(NC(=O)c8nccn8C)cn7C)cn6C)cn5C)cn4C)cn3C)cn2C)cn1C` [Compound 105], which EC50 is on record?
Answer: > 500 nM

Question: With `CCN(CC)CCCC[C@H](NC(=O)[C@H](CC(C)C)NC(=O)[C@H](C)NC(=O)[C@H](Cc1ccccc1)NC(=O)c1ccc(C(C)(C)C)cc1)C(=O)N[C@@H](CO)C(=O)NCCOCCOCCOCCOCCOCCNC(=O)c1nc(NC(=O)CCNC(=O)c2cc(NC(=O)c3nc(NC(=O)CCCNC(=O)c4cc(NC(=O)c5nc(NC(=O)c6cc(NC(=O)c7cc(NC(=O)c8nccn8C)cn7C)cn6C)cn5C)cn4C)cn3C)cn2C)cn1C` [Compound 106] as the compound, how does the EC50 read?
Answer: > 500 nM

Question: For `CCN(CC)CCCC[C@H](NC(=O)[C@H](CC(C)C)NC(=O)[C@H](C)NC(=O)[C@H](Cc1ccccc1)NC(=O)c1ccc(C(C)(C)C)cc1)C(=O)N[C@@H](CO)C(=O)NCCOCCOCCOCCOCCOCCNC(=O)c1nc(NC(=O)CCNC(=O)c2cc(NC(=O)c3nc(NC(=O)CCCNC(=O)c4cc(NC(=O)c5nc(NC(=O)c6cc(NC(=O)c7cccn7C)cn6C)cn5C)cn4C)cn3C)cn2C)cn1C` [Compound 107], which EC50 is on record?
Answer: > 500 nM

same assay, conditions: Homo sapiens, Fibroblast; DM1 fibroblasts, 48 h treatment, 8-point dose response, 3 μM top dose; read-out: Foci Reduction in Fibroblast EC50, 48 h

Question: `COc1c(OCCOCCOCCOCCOCCOCCNC(=O)CCNC(=O)c2nc(NC(=O)c3cc(NC(=O)CCNC(=O)c4nc(NC(=O)CCCNC(=O)c5cc(NC(=O)c6nc(NC(=O)CCNC(=O)c7cc(NC(=O)c8nccn8C)cn7C)cn6C)cn5C)cn4C)cn3C)cn2C)cccc1C(=O)N1CCN(C(=O)COc2cc(C)cc(C)c2)CC1` [Compound 91] was tested. Which EC50 did it give?
Answer: > 500 nM

Question: For `COc1c(OCCOCCOCCOCCOCCOCCNC(=O)CCNC(=O)c2nc(NC(=O)c3cc(NC(=O)CCNC(=O)c4nc(NC(=O)CCCNC(=O)c5cc(NC(=O)c6nc(NC(=O)CCNC(=O)c7cc(NC(=O)c8nccn8C)cn7C)cn6C)cn5C)cn4C)cn3C)cn2C)cccc1C(=O)N1CCN(C(=O)COc2cc(C)c(N)c(C)c2)CC1` [Compound 92], which EC50 is on record?
Answer: > 500 nM

Question: For `COc1c(OCCOCCOCCOCCOCCOCCNC(=O)CCNC(=O)c2nc(NC(=O)c3cc(NC(=O)CCNC(=O)c4nc(NC(=O)CCCNC(=O)c5cc(NC(=O)c6nc(NC(=O)CCNC(=O)c7cc(NC(=O)c8nccn8C)cn7C)cn6C)cn5C)cn4C)cn3C)cn2C)cccc1C(=O)N1CCN(C(=O)COc2cc(C)c(NC(N)=O)c(C)c2)CC1` [Compound 93], which EC50 is on record?
Answer: > 500 nM

Question: Which EC50 does the source give for `COc1c(OCCOCCOCCOCCOCCOCCNC(=O)CCNC(=O)c2nc(NC(=O)c3cc(NC(=O)CCNC(=O)c4nc(NC(=O)CCCNC(=O)c5cc(NC(=O)c6nc(NC(=O)CCNC(=O)c7cc(NC(=O)c8nccn8C)cn7C)cn6C)cn5C)cn4C)cn3C)cn2C)cccc1C(=O)N1CCN(C(=O)COc2cccc(C)c2)CC1` [Compound 94] here?
Answer: > 500 nM

Question: Which EC50 does the source give for `COc1c(OCCOCCOCCOCCOCCOCCNC(=O)CCNC(=O)c2nc(NC(=O)c3cc(NC(=O)CCNC(=O)c4nc(NC(=O)CCCNC(=O)c5cc(NC(=O)c6nc(NC(=O)CCNC(=O)c7cc(NC(=O)c8nccn8C)cn7C)cn6C)cn5C)cn4C)cn3C)cn2C)cccc1C(=O)N1CCN(C(=O)COc2ccc(NC(N)=O)c(C)c2)CC1` [Compound 95] here?
Answer: > 500 nM
